Test results taken from US11932642B1, “Substituted pyrido[3′,4′:4,5]pyrrolo[3,2-b][1,6]naphthyridines as CK2 inhibitors” (KING FAISAL UNIVERSITY, priority 2023, dated 2024).

Assays:
MCF7 (breast) = experiment: In vitro cytotoxic activity (MTT) assay, MCF7; assay type: cell-based; conditions: Homo sapiens; MCF7 (breast) cells, exposed for 96 hours; read-out: IC50, concentration of compound eliciting a 50% inhibition of cell proliferation
Experimental: (§1) Compounds 1-12 were screened for their in vitro cytotoxic activity utilizing a 3-(4,5-dimethyl-thiazol-2-yl)-2,5-diphenyltetrazolium bromide (MTT) assay against selected cancer human cell lines consisting of PC3 (prostate), HCT116 (colon), A375 (melanoma), H1299 (lung), MIAPaCa-2 (pancreas), HL60 (leukemia), MCF7 (breast), MDA-MB-231 (breast) (T. Mosmann, J. Immunol. Meth., 1983, 65, 55-63). The cells were cultured at 37° C. in RMPI1640 medium supplemented with 10% fetal bovine serum, 50 IU/mL penicillin, and 50 μg/mL streptomycin in a 5% CO2 incubator. All cells were sub-cultured 3 times/week by trypsinisation. Viable cells were seeded and allowed to adhere for 12 h before a test drug was added in 96-well plates at an initial density of 1.0×10^5 cells/mL. Tumour cell lines were separately exposed to various concentrations of the tested compounds followed by incubation at a temperature of 37° C. during 96 h inside a medium of fresh RMPI 1640. Cells were subsequently incubated at 37° C. using MTT at 0.5 mg/mL during 4 h. After removal of supernatant, formazan crystals were dissolved in isopropanol and the optical density was measured at 570 nm. CX-4945 was used as a positive control.

HL60 (leukemia) = experiment: In vitro cytotoxic activity (MTT) assay, HL60; assay type: cell-based; conditions: Homo sapiens, HL-60; HL60 (leukemia) cells, exposed for 96 hours; read-out: IC50, concentration of compound eliciting a 50% inhibition of cell proliferation
Experimental: as §1

[1] = biological target: T1, recombinant human CK2 (RRββ-holoenzyme) (Homo sapiens, UniProt P68400); experiment: CK2 Kinase Assay (radiometric, [γ-33P] ATP); assay type: biochemical; conditions: final ATP concentration 15 μM, 10 min at 30° C.; read-out: protein kinase CK2 IC50
T1 construct: purchased Millipore
T1 sequence (P68400 whole entry): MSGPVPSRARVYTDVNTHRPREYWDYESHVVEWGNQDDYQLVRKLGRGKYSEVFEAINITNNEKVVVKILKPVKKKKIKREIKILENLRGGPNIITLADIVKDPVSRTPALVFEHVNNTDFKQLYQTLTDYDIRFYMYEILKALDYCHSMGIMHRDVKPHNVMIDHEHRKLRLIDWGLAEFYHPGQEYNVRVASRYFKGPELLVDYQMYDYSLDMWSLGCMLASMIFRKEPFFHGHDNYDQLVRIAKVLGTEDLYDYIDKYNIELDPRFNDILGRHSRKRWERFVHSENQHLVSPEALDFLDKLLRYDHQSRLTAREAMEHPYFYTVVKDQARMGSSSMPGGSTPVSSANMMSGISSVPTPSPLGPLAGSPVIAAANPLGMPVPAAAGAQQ
T1 sequence (P67870 whole entry partner): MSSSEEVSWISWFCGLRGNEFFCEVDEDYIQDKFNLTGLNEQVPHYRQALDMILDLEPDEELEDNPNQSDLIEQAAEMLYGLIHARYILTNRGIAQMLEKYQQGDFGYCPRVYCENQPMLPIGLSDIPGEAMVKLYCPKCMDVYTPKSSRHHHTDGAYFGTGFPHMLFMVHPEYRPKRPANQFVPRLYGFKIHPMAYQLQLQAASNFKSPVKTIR
Experimental: CK2 Kinase Assay was conducted using the protocol as described in Pierre F. et al; J. Med. Chem. 2011, 54, 635-654. The tested compounds in aqueous solution were added at a volume of 10 μL to a reaction mixture comprising 10 μL of assay dilution buffer (ADB; 20 mM MOPS, pH 7.2, 25 mM β-glycerol phosphate, 5 mM EGTA, 1 mM sodium orthovanadate, and 1 mM dithiothreitol), 10 μL of substrate peptide (RRRDDDSDDD, dissolved in ADB at a concentration of 1 mM), 10 μL of recombinant human CK2 (RRββ-holoenzyme, 25 ng dissolved in ADB; Millipore). Reactions were initiated by the addition of 10 μL of ATP solution (90% 75 mMMgCl2, 75 μM ATP (final ATP concentration: 15 μM) dissolved in ADB; 10% [γ-33P] ATP (stock 1 mCi/100 μL; 3000 Ci/mmol (Perkin-Elmer) and maintained for 10 min at 30° C. The reactions were quenched with 100 μL of 0.75% phosphoric acid and then transferred to and filtered through a phosphor cellulose filter plate (Millipore). After washing each well five times with 0.75% phosphoric acid, the plate was dried under vacuum for 5 min and, following the addition of 15 μL of scintillation fluid to each well, the residual radioactivity was measured using a Wallac […] counter. The IC50 values were derived from eight concentrations of test inhibitors.

MDA-MB-231 (breast) = experiment: In vitro cytotoxic activity (MTT) assay, MDA-MB-231; assay type: cell-based; conditions: Homo sapiens; MDA-MB-231 (breast) cells, exposed for 96 hours; read-out: IC50, concentration of compound eliciting a 50% inhibition of cell proliferation
Experimental: as §1

PC3 (prostate) = experiment: In vitro cytotoxic activity (MTT) assay, PC3; assay type: cell-based; conditions: Homo sapiens, Prostate cell; PC3 (prostate) cells, exposed for 96 hours; read-out: IC50, concentration of compound eliciting a 50% inhibition of cell proliferation
Experimental: as §1

MIAPaCa-2 (pancreas) = experiment: In vitro cytotoxic activity (MTT) assay, MIAPaCa-2; assay type: cell-based; conditions: Homo sapiens, MIA PaCa-2; MIAPaCa-2 (pancreas) cells, exposed for 96 hours; read-out: IC50, concentration of compound eliciting a 50% inhibition of cell proliferation
Experimental: as §1

A375 (melanoma) = experiment: In vitro cytotoxic activity (MTT) assay, A375; assay type: cell-based; conditions: Homo sapiens, A-375; A375 (melanoma) cells, exposed for 96 hours; read-out: IC50, concentration of compound eliciting a 50% inhibition of cell proliferation
Experimental: as §1

H1299 (lung) = experiment: In vitro cytotoxic activity (MTT) assay, H1299; assay type: cell-based; conditions: Homo sapiens, NCI-H1299; H1299 (lung) cells, exposed for 96 hours; read-out: IC50, concentration of compound eliciting a 50% inhibition of cell proliferation
Experimental: as §1

HCT116 (colon) = experiment: In vitro cytotoxic activity (MTT) assay, HCT116; assay type: cell-based; conditions: Homo sapiens, HCT-116; HCT116 (colon) cells, exposed for 96 hours; read-out: IC50, concentration of compound eliciting a 50% inhibition of cell proliferation
Experimental: as §1

IC50 [1]: 64 nM
SMILES: Clc1cccc(Nc2c3cnccc3nc3c2[nH]c2ccncc23)c1 [Compound (1), N-(3-chlorophenyl)-10H-pyrido[3′,4′:4,5]pyrrolo[3,2-b][1,6]naphthyridin-11-amine]
IC50 (MCF7 (breast)): 7600 nM
IC50 (HL60 (leukemia)): 2400 nM
IC50 (MDA-MB-231 (breast)): 5400 nM
IC50 (PC3 (prostate)): 1700 nM
IC50 (MIAPaCa-2 (pancreas)): 900 nM
IC50 (A375 (melanoma)): 2800 nM
IC50 (H1299 (lung)): 3200 nM
IC50 (HCT116 (colon)): 1100 nM
